Assays:
Type in all cases: cell-based
Malassezia furfur = assay: Challenge testing with pathogenic fungi in SDB; details: SDB with olive oil and Tween 80, w/v % in label, pellicle formation; for Grade code, Pathogenic Fungi, M. furfur, 14 Days: 14 days incubation; for Grade code, Pathogenic Fungi, M. furfur, 30 Days: 30 days incubation
Experimental: (§1) Both M. canis and Trichophyton rubrum were grown on Sabouraud dextrose broth (SDB) (pH 5.6), while Malassezia fufur was grown in SDB supplemented with 2% (v/v) of olive oil and 0.2% (v/v) of Tween™ 80; incubation was at 22° C.±2° C. under continuous agitation by stirring for 10 days. The organisms were grown to a cell concentration of between 10^3 and 10^4 cfu/mL. The actual inoculation cell concentration of these challenges was determined by diluting in sterile buffer water and (spread-plate method) plating for enumeration.
(§2) Challenge organisms were used to inoculate tubes containing each test material (CHDM, etc) or combination of test materials, at concentrations given in Table 5, in SDB (or for M. furfur, in SDB supplemented with olive oil and Tween™ 80). The inoculations were in the amount of 1.5 mL aliquots of each culture with static incubation at 22±2° C. Subcultures were made after 3-, 14-, and 30-days incubation. All challenges were conducted in triplicate. In the case of M. canis, the growth response was assessed by the visual presence or absence of growth in the tubes; in the case of T. rubrum, a respiratory dye (0.2% w/v aqueous INT solution: 2-(4-iodophenyl)-3-(4-nitrophenyl)-5-phenyl tetrazolium chloride) was added to the tubes, turning red if the organism was viable; and, finally, in the case of M. furfur, the growth response was assessed based upon visible pellicle formation in the tubes at the meniscus. The fungal growth in each tube was assigned a grade code as follows:
(§3) 0: No visible growth 1: Some growth in tube 2: Moderate growth in tube 3: Good growth in tube 4: Extreme growth in tube
(§4) All test material concentrations are given as w/v %. The grade codes given are the average of the grade codes for duplicate or triplicate samples.
(§5) Table 5 compares the antimicrobial activity of 1,4-CHDM (AB) alone to 1,4-CHDM in combination with EDTA, phenoxyethanol (PE), and caprylyl glycol (CG). CHDM at 0.5% was tested with EDTA, and at 1.25 and 2.5% with EDTA, PE, and CG. (Note that the combination of CHDM with only EDTA was not tested against pathogenic fungi.) Results are also given for EDTA, PE, and CG alone, so the result for each mixture can be compared to the antimicrobial activity for each of its components individually. […] Possible synergies were determined by treating the grade code as an estimate of the log of the microbial count (log of cfu/mL). Log reductions can then be estimated by subtracting each grade code from the grade code for broth alone (grade code 5, except for the pathogenic fungi).

Trichophyton rubrum = assay: Challenge testing with pathogenic fungi in SDB; details: w/v % in label, INT respiratory dye; for Grade code, Pathogenic Fungi, T. ruburm, 3 Days: 3 days incubation; for Grade code, Pathogenic Fungi, T. ruburm, 14 Days: 14 days incubation; for Grade code, Pathogenic Fungi, T. ruburm, 30 Days: 30 days incubation
Experimental: as §1, §2, §3, §4, §5

Microsporum canis = assay: Challenge testing with pathogenic fungi in SDB; details: w/v % in label, visual growth in tubes; for Grade code, Pathogenic Fungi, M. canis, 14 Days: 14 days incubation; for Grade code, Pathogenic Fungi, M. canis, 30 Days: 30 days incubation
Experimental: as §1, §2, §3, §4, §5

Candida albicans = assay: Microbial challenge testing in BPW; details: for Grade code, C. albicans, 3 Day / Grade code, C. albicans, 14 Day / Grade code, C. albicans, 30 Days: BPW, w/v % in label, average of replicates
Experimental: The microorganisms used in challenge tests are given in Table 3, designated as either ATCC (American Type Culture Collection) or wild type. These wild type organisms were problematic organisms previously isolated from chemical products. In the description for each organism, the bacteria are indicated as either GN (Gram negative) or GP (Gram positive).
All of the microorganisms were grown in Tryptose Soy Broth (TSB), DIFCO™ available from Becton, Dickinson and Company, containing 1% dextrose. Aspergillus niger and Candida albicans were incubated at 22° C.±2° C. for at least 96 hours. All bacteria were incubated at 35° C.±2° C. in a humidified incubator for at least 96 hours.
Aspergillus niger and Candida albicans were also grown on Sabouraud dextrose agar (SDA) at 22° C.±2° C. for 7 to 14 days or until full sporulation was achieved.
The following procedure was followed to determine the amount of each challenge material (inoculum broth) required to produce a 10^8 cfu/mL challenge, which is equivalent to a final test-sample microbial concentration of 10^5 to 10^6 cfu (colony-forming units)/mL.
Using a sterile serological pipette, 1 mL of the growth from each TSB culture was transferred into tubes containing 9 mL phosphate buffer (pH 7.2) and mixed thoroughly. This process was repeated to make serial 1:10 dilutions. Then 0.1 mL of each sample and dilution was inoculated onto agar plates to produce the equivalent of a further 1:10 dilution. C. albicans and A. niger were inoculated onto SDA and bacteria were inoculated onto Plate Count Agar (PCA), DIFCO™ available from Becton, Dickinson and Company. The 0.1 mL aliquots were evenly distributed on the plates using the spread-plate technique. The spread-plate technique is performed by spreading the aliquot over the entire plate surface using a sterile spreading rod while rotating the plate with a rotary auto-plater. After the inoculum was absorbed completely, each plate was inverted and incubated (fungi at 22° C.±2° C. and bacteria at 35° C.±2° C.).
After incubation for at least 48 hours, colonies that had developed on the agar plates were counted and recorded with the corresponding dilution. If counting had to be delayed temporarily, plates were refrigerated, preferably no more than 24 hours, until they could be counted. The number of cfu/mL was determined by multiplying the count by the dilution factor for that particular plate.
Turbidity in Nepholemetric Turbidity Units (NTU) was measured for each serial dilution using the HF-Micro 100 Model Turbidimeter. For each microorganism, the plate counts were compared to the turbidity readings.
On the day of challenge, the Candida albicans inoculum broth was poured through non-absorbent sterile gauze and centrifuged. The […] was then diluted with phosphate buffer (pH 7.2) until the desired turbidity was reached. Using a hemocytometer, a determination was made whether the challenge contained the desired concentration. Dilutions were made through 1.0×10^8 and three SDA spread plates were inoculated with 0.1 mL of each dilution.
Control substrates (“broth alone”) were prepared for each microorganism separately in triplicate by adding 13.5 mL of BPW (pH 7.0) containing 1% (w/v) dextrose to each 20-mL glass tube; then adding 1.5 mL challenge material to produce a final concentration at time zero of 10^5 to 10^6 cfu/mL and a total volume of 15 mL.
Test sample substrates were prepared containing each test material (1,4-CHDM, etc) or combination of test materials at the concentrations shown in Tables 5 and 6.

## OCC1CCC(CO)CC1 (centres unmarked) [1,4-CHDM, 1,4-cyclohexanedimethanol]
Malassezia furfur; 3 days incubation
  Grade code, Pathogenic Fungi, M. furfur, 3 Days: 0
Malassezia furfur; listed as 0.5% AB
  Grade code, Pathogenic Fungi, M. furfur, 14 Days: 1
  Grade code, Pathogenic Fungi, M. furfur, 30 Days: 2
Malassezia furfur; listed as 1.25% AB
  Grade code, Pathogenic Fungi, M. furfur, 14 Days: 0
  Grade code, Pathogenic Fungi, M. furfur, 30 Days: 0
Malassezia furfur; listed as 2.5% AB
  Grade code, Pathogenic Fungi, M. furfur, 14 Days: 0
  Grade code, Pathogenic Fungi, M. furfur, 30 Days: 0
Trichophyton rubrum; listed as 0.5% AB
  Grade code, Pathogenic Fungi, T. ruburm, 3 Days: 1
  Grade code, Pathogenic Fungi, T. ruburm, 14 Days: 1
  Grade code, Pathogenic Fungi, T. ruburm, 30 Days: 1
Trichophyton rubrum; listed as 1.25% AB
  Grade code, Pathogenic Fungi, T. ruburm, 3 Days: 0
  Grade code, Pathogenic Fungi, T. ruburm, 14 Days: 0
  Grade code, Pathogenic Fungi, T. ruburm, 30 Days: 0
Trichophyton rubrum; listed as 2.5% AB
  Grade code, Pathogenic Fungi, T. ruburm, 3 Days: 0
  Grade code, Pathogenic Fungi, T. ruburm, 14 Days: 0
  Grade code, Pathogenic Fungi, T. ruburm, 30 Days: 0
Microsporum canis; 3 days incubation
  Grade code, Pathogenic Fungi, M. canis, 3 Days: 2
Microsporum canis; listed as 0.5% AB
  Grade code, Pathogenic Fungi, M. canis, 14 Days: 1
  Grade code, Pathogenic Fungi, M. canis, 30 Days: 1
Microsporum canis; listed as 1.25% AB
  Grade code, Pathogenic Fungi, M. canis, 14 Days: 1
  Grade code, Pathogenic Fungi, M. canis, 30 Days: 1
Microsporum canis; listed as 2.5% AB
  Grade code, Pathogenic Fungi, M. canis, 14 Days: 0
  Grade code, Pathogenic Fungi, M. canis, 30 Days: 0
Candida albicans; 0.5%, 3 days incubation
  Grade code C. albicans: 3 (101 to 1000 colonies (thus 1000 to 10,000 cfu/mL))
Candida albicans; 0.5%, 14 days incubation
  Grade code C. albicans: 4 (1001 to 10,000 colonies (thus 10,000 cfu/mL to 100,000 cfu/mL))
Candida albicans; 0.5%, 30 days incubation
  Grade code C. albicans: 4 (1001 to 10,000 colonies (thus 10,000 cfu/mL to 100,000 cfu/mL))
Candida albicans; 1.25%, 3 days incubation
  Grade code C. albicans: 1 (1 to 51 colonies counted (thus 10 to 510 cfu/mL))
Candida albicans; 1.25%, 14 days incubation
  Grade code C. albicans: 3 (101 to 1000 colonies (thus 1000 to 10,000 cfu/mL))
Candida albicans; 1.25%, 30 days incubation
  Grade code C. albicans: 4 (1001 to 10,000 colonies (thus 10,000 cfu/mL to 100,000 cfu/mL))
Candida albicans; 2.5%, 3 days incubation
  Grade code C. albicans: 0 (No growth detected or <1 colony (thus <10 cfu/mL))
Candida albicans; 2.5%, 14 days incubation
  Grade code C. albicans: 2 (52 to 100 colonies counted (thus 520 to 1000 cfu/mL))
Candida albicans; 2.5%, 30 days incubation
  Grade code C. albicans: 1 (1 to 51 colonies counted (thus 10 to 510 cfu/mL))
Candida albicans; 3 days incubation, listed as 0.5% AB
  Grade code, C. albicans, 3 Day: 3 (101 to 1000 colonies (thus 1000 to 10,000 cfu/mL))
Candida albicans; 3 days incubation, listed as 1.25% AB
  Grade code, C. albicans, 3 Day: 1 (1 to 51 colonies counted (thus 10 to 510 cfu/mL))
Candida albicans; 3 days incubation, listed as 2.5% AB
  Grade code, C. albicans, 3 Day: 0 (No growth detected or <1 colony (thus <10 cfu/mL))
Candida albicans; 14 days incubation, listed as 0.5% AB
  Grade code, C. albicans, 14 Day: 4 (1001 to 10,000 colonies (thus 10,000 cfu/mL to 100,000 cfu/mL))
Candida albicans; 14 days incubation, listed as 1.25% AB
  Grade code, C. albicans, 14 Day: 3 (101 to 1000 colonies (thus 1000 to 10,000 cfu/mL))
Candida albicans; 14 days incubation, listed as 2.5% AB
  Grade code, C. albicans, 14 Day: 2 (52 to 100 colonies counted (thus 520 to 1000 cfu/mL))
Candida albicans; 30 days incubation, listed as 0.5% AB
  Grade code, C. albicans, 30 Days: 4 (1001 to 10,000 colonies (thus 10,000 cfu/mL to 100,000 cfu/mL))
Candida albicans; 30 days incubation, listed as 1.25% AB
  Grade code, C. albicans, 30 Days: 4 (1001 to 10,000 colonies (thus 10,000 cfu/mL to 100,000 cfu/mL))
Candida albicans; 30 days incubation, listed as 2.5% AB
  Grade code, C. albicans, 30 Days: 1 (1 to 51 colonies counted (thus 10 to 510 cfu/mL))

## CC1(C)C(O)C(C)(C)C1O (centres unmarked) [TMCD, 2,2,4,4-tetramethyl-1,3-cyclobutanediol]
Candida albicans; 0.5%, 3 days incubation
  Grade code C. albicans: 4 (1001 to 10,000 colonies (thus 10,000 cfu/mL to 100,000 cfu/mL))
Candida albicans; 0.5%, 14 days incubation
  Grade code C. albicans: 4 (1001 to 10,000 colonies (thus 10,000 cfu/mL to 100,000 cfu/mL))
Candida albicans; 0.5%, 30 days incubation
  Grade code C. albicans: 4 (1001 to 10,000 colonies (thus 10,000 cfu/mL to 100,000 cfu/mL))
Candida albicans; 1.25%, 3 days incubation
  Grade code C. albicans: 3 (101 to 1000 colonies (thus 1000 to 10,000 cfu/mL))
Candida albicans; 1.25%, 14 days incubation
  Grade code C. albicans: 4 (1001 to 10,000 colonies (thus 10,000 cfu/mL to 100,000 cfu/mL))
Candida albicans; 1.25%, 30 days incubation
  Grade code C. albicans: 4 (1001 to 10,000 colonies (thus 10,000 cfu/mL to 100,000 cfu/mL))
Candida albicans; 2.5%, 3 days incubation
  Grade code C. albicans: 3 (101 to 1000 colonies (thus 1000 to 10,000 cfu/mL))
Candida albicans; 2.5%, 14 days incubation
  Grade code C. albicans: 2 (52 to 100 colonies counted (thus 520 to 1000 cfu/mL))
Candida albicans; 2.5%, 30 days incubation
  Grade code C. albicans: 2 (52 to 100 colonies counted (thus 520 to 1000 cfu/mL))

— US20110028566A1, “COMPOSITIONS AND PRODUCTS CONTAINING CYCLOALIPHATIC DIOL ANTIMICROBIAL AGENTS AND METHODS OF USING THE COMPOSITIONS AND PRODUCTS” (EASTMAN CHEMICAL COMPANY, priority 2009, published 2011)
